ChEMBL document CHEMBL1157048, “Synthesis and in vitro activity of limonene derivatives against Leishmania and Trypanosoma” (Eur J Med Chem, 2010)

Legend:
Leishmania braziliensis = experiment: Antileishmanial activity against Leishmania (Viannia) braziliensis promastigotes; format: functional, organism-based
Trypanosoma cruzi [1] = experiment: Antitrypanosomal activity against Trypanosoma cruzi Tulahuen 2 assessed as inhibition of epimastigotes growth at 50 uM; format: functional; conditions: read-out: GI
LLC-MK2 = experiment: Cytotoxicity against rhesus monkey LLC-MK2 cells after 48 hrs; format: cell-based; conditions: Macaca mulatta, LLC-MK2, 48 h
[2] = Selectivity index, ratio of IC50 for rhesus monkey LLC-MK2 cells to IC50 for Leishmania amazonensis promastigotes; format: toxicity, cell-based; conditions: read-out: Ratio IC50
Trypanosoma cruzi [3] = experiment: Antitrypanosomal activity against Trypanosoma cruzi Tulahuen 2 assessed as inhibition of epimastigotes growth; format: functional, organism-based
[4] = Selectivity index, ratio of IC50 for rhesus monkey LLC-MK2 cells to IC50 for Leishmania (Viannia) braziliensis promastigotes; format: toxicity, cell-based; conditions: read-out: Ratio IC50
Leishmania amazonensis = experiment: Antileishmanial activity against Leishmania amazonensis promastigotes after 48 hrs; format: functional, organism-based
[5] = Selectivity index, ratio of IC50 for rhesus monkey LLC-MK2 cells to IC50 for Trypanosoma cruzi Tulahuen 2 epimastigotes; format: toxicity, cell-based; conditions: read-out: Ratio IC50
Leishmania sp. = experiment: Antileishmanial activity against Leishmania sp. by MTT assay; format: functional, organism-based

| Structure (SMILES) | IC50 (Leishmania braziliensis) | inhibition of growth at 50 µM (Trypanosoma cruzi [1]) | IC50 (Trypanosoma cruzi [3]) | other results |
| --- | --- | --- | --- | --- |
| CC1=CC[C@H](C(C)CCNc2ccccn2)CC1 (some centres undefined) | 27 µM | – | – | – |
| CCCNCCC(C)[C@H]1CC=C(C)CC1 (mixture of isomers) | 17.2 µM | 21% | > 50 µM | IC50 (LLC-MK2): 192 µM; selectivity ratio [2]: 3.6; selectivity ratio [4]: 10; IC50 (Leishmania amazonensis): 53.5 µM |
| CC1=CC[C@H](C(C)CCNC(C)C)CC1 (mixture of isomers) | 254 µM | – | – | – |
| CC1=CC[C@H](C(C)CCNCc2ccccc2)CC1 (mixture of isomers) | 258 µM | 53.5% | 50 µM | – |
| CC1=CC[C@H](C(C)CCN2CCOCC2)CC1 (mixture of isomers) | 1030 µM | 20.7% | > 50 µM | – |
| CC1=CC[C@H](C(C)CCN2CCNCC2)CC1 (mixture of isomers) | 270 µM | 82.4% | 19.2 µM | – |
| CCCN(CCC(C)[C@H]1CC=C(C)CC1)S(=O)(=O)c1ccc(C)cc1 (mixture of isomers) | 12.1 µM | – | – | IC50 (LLC-MK2): > 1010 µM; selectivity ratio [2]: > 5.2; selectivity ratio [4]: 10; IC50 (Leishmania amazonensis): 196 µM |
| CC1=CC[C@H](C(C)CCNc2ccccc2)CC1 (mixture of isomers) | 11.5 µM | 70.5% | 29.5 µM | selectivity ratio [5]: 10.4; IC50 (LLC-MK2): 312 µM; selectivity ratio [2]: 3.5; selectivity ratio [4]: 10; IC50 (Leishmania amazonensis): 89.8 µM |
| CC1=CC[C@H](C(C)CCNc2ccc(Cl)cc2)CC1 (mixture of isomers) | 58.4 µM | – | – | – |
| COc1ccc(NCCC(C)[C@H]2CC=C(C)CC2)cc1 (mixture of isomers) | 57.6 µM | – | – | – |
| CC1=CC[C@H](C(C)CCNc2ccc(C)cc2)CC1 (mixture of isomers) | 28 µM | – | – | – |
| CC1=CC[C@H](C(C)CCNCc2ccco2)CC1 (mixture of isomers) | 35.6 µM | 51.4% | 50 µM | – |
| CC1=CC[C@H](C(C)CCNc2cccc(C(F)(F)F)c2)CC1 (mixture of isomers) | 84.6 µM | – | – | – |
| CC1=CC[C@H](C(C)CCN(C)c2ccccc2)CC1 (mixture of isomers) | 54.5 µM | 0% | > 50 µM | – |
| CC1=CC[C@H](C(C)CCNCCO)CC1 (mixture of isomers) | 23.2 µM | 41.8% | > 50 µM | IC50 (LLC-MK2): 587 µM; selectivity ratio [2]: 3.4; selectivity ratio [4]: 10; IC50 (Leishmania amazonensis): 174 µM |
| C=C(C)[C@H]1CC=C(C)CC1 [D-LIMONENE] | 876 µM | 0% | > 50 µM | IC50 (Leishmania sp.): 185 µM |
| CC1CS(=O)(=O)CCN1/N=C/c1ccc([N+](=O)[O-])o1 (centres undefined) [NIFURTIMOX] | – | 100% | – | – |
| N=C(N)c1ccc(OCCCCCOc2ccc(C(=N)N)cc2)cc1 [PENTAMIDINE] | 48.5 µM | – | – | – |
